# Test results reported in patent US20160184459A1, “CANCER CELL SPECIFIC IMAGING PROBES AND METHODS OF USE” (THE RESEARCH FOUNDATION FOR THE STATE UNIVERSITY OF NEW YORK, priority 2013, published 2016).
# Experiments:
# [1] = system: Eph4; test: Cell viability assays (MTS, PI staining), normal mammary epithelial cells; format: cell-based, mouse
# Description: FIG. 15. Inhibition of cell viability by BKAc-Puro. The cell lines were grown and analyzed as in FIG. 12.
# FIG. 17. Selective cytotoxicity by BKAc-Puro on breast cancer cells. Normal mammary gland epithelial cells (Eph4) and breast cancer cells (MCF-7 and MDA-MB-231) were grown and analyzed as in FIG. 10. BF, bright field. PI, fluorescent PI channel. BKAc-Puro can selectively cause cell death in breast cancer cells (MCF-7 and MDA-MB-231) while leaving normal Eph4 cells unharmed.
# (§1) Cell number was determined by cell counting using improved Neubauer hemacytometer. Cell viability was calculated as the number of viable cells divided by the total number of cells using Trypan Blue Stain (Invitrogen) to distinguish non-viable cells. Data were obtained from duplicated samples with quadruplicate measurements. MTS based cell viability assay was performed using CellTiter 96 Aqueous Cell Proliferation Assay (Promega) according to the manufacturer's instruction. […] After additional 2-3 h incubation, the absorbance of the formazan at 490 nm was measured by the microplate reader. […] Determination of non-viable cells using PI staining was performed by adding 1 μg/ml of PI solution (Sigma) to the cell culture, prior to the examination under fluorescence microscopy (Axiovert 3, Carl Zeiss) through a×32 objective equipped with a digital imaging processor (Infinity 3, Lumenera).
# [2] = system: prostate cancer cells (PC-3, DU-145 and LNCaP); test: Cell viability assay, prostate cancer cells; format: cell-based; details: dose-response, MTS
# Description: FIG. 19. Selective cytotoxicity by BKAc-Puro on prostate cancer cells. Prostate cancer (PC-3, DU-145, and LNCaP), colon cancer (HCT116 as a positive control sensitive to the drug), and normal colon (CCD841-CoN as a negative control) cells were grown and analyzed as in FIG. 13. BKAc-Puro can effectively cause cell death on prostate cancer cells.
# as §1
# [3] = Toxicity / body weight change in mice; format: in vivo, mouse
# Text: FIG. 20. In vivo anticancer efficacy of BKAc-Puro. […] HCT116 cells were implanted subcutaneously into female nude mice. When the developed tumors reached 200 mm^3, animals were intraperitoneally injected by the indicated dose of the compound or vehicle control (DMSO). Tumor volume was estimated by the equation vol=(a×b^2)/2, where vol, a, and b represent volume, the length of the major axis, and the length of the minor axis, respectively. Arrows indicate the time points of treatment. (b) Body weight change during the treatment in a. Value is expressed in percent change compared to the day of the first treatment.
# FIG. 21. HCT116 cells were implanted subcutaneously into female nude mice. When palpable tumors reached 50-150 mm^3, animals were randomized and treated by the indicated dose of the compound or vehicle control (DMSO) via intraperitoneal injection. Tumor incidence is presented as number of mice developed tumor (volume >300 mm^3) after 2 weeks of daily treatment/number of mice treated. Tumor volume was estimated by the equation vol=(a×b^2)/2, where vol, a, and b represent volume, the length of the major axis, and the length of the minor axis, respectively.
# FIG. 22. Dose escalation toxicity study. Female nude mice (8-10 weeks old) were treated with the indicated dose of BKAc-Puro (7, 20, 67, 200, and 400 mg/kg; n=3 in each treatment group). Body weight change during the treatment is expressed in percent change compared to the day of the first treatment. Arrows indicate the time points of treatment. Data represent mean values±s.d. (n=3).
# (§2) FIG. 29. In vivo anticancer efficacy of Boc-KAc-Puro. (a) Tumor growth in HCT116 xenograft model. Animals were treated with acidified saline control or Boc-KAc-Puro (50 or 150 mg/kg). Values are mean±s.d. (n=5 mice per group). *** P<0.001 compared to the control group. P=0.000716 (50 mg/kg), P=0.000349 (150 mg/kg) at 10 d. (b) Body weight change during the treatment in a and was monitored as a sign of general animal health. Values are mean±s.d. (c) Tumor growth in HT29 xenograft model. Animals were treated with acidified saline control or Boc-KAc-Puro (150 mg/kg). Values are mean±s.d. (n=5 mice per group). *** P<0.001 compared to the control group. P=0.000514 (150 mg/kg) at 10 d. (d) Body weight change during the treatment in c was monitored as a sign of general animal health. Values are mean±s.d. (e) Levels of Puro-incorporated proteins were monitored by immunoblotting. Animals bearing HT29 xenograft tumor were given daily intraperitoneal administration of the prodrug at 150 mg/kg/dose for 3 d, followed by preparation of tissue lysates. The lower panel (anti-α-Tubulin) served as a loading control.
# [4] = system: Puro incorporation in tumors, muscle and kidney; test: Immunoblotting of Puro-labeled proteins in tissue lysates of HT29 xenograft mice; format: in vivo, mouse; details: 150 mg/kg/dose daily intraperitoneal for 3 d
# Description: as §2, with “Animals bearing HT29 xenograft tumor were given daily intraperitoneal administration of the prodrug at 150 mg/kg/dose for 3 d, followed by preparation of tissue lysates. The lower panel (anti-α-Tubulin) served as a loading control.” left out
# Cultured cells or tissue samples were sonicated in RIPA lysis buffer (1% NP-40, 0.1% SDS, 50 mM Tris-HCl pH 7.4, 150 mM NaCl, 0.5% sodium deoxycholate, 1 mM EDTA) supplemented with PMSF and protease inhibitor cocktail (Roche) on ice followed by clarification. […] Proteins of interest were detected with anti-mouse secondary antibody by chemiluminescence (ECL Kit, GE Healthcare Life Sciences). […]
# [5] = system: non-malignant Caco-2 cells; test: Cell counting, Caco-2; format: cell-based, human; details: 54 μM, 5 d
# Description: FIG. 9. The colon cancer cell lines were grown for 5 d either with vehicle control DMSO (gray symbols) or 54 μM BKAc-Puro (red and blue symbols), and cell number was determined at the indicated time points.
# as §1, with “instruction. Either 1 μl of DMSO alone or variable concentrations of BKAc-Puro or Puro in DMSO were added to the cell lines seeded at 5×10^4 cells per well in 96-well tissue culture plates in 100 μl of the growth medium, followed by 3-5 d incubation at 37° C. with 5% CO2 atmosphere.” for “instruction.”
structure (smiles),measurement,setting,value
"COc1ccc(CC(NC(=O)C(CCCCNC(C)=O)NC(=O)OC(C)(C)C)C(=O)NC2C(O)[C@H](n3cnc4c(N(C)C)ncnc43)O[C@@H]2CO)cc1 (stereo partly drawn) [BKAc-Puro, N-[3′-(α-Amino-p-methoxyhydrocinnamamido)-3′-deoxy-N,N-dimethyldenosinyl)-N-α-(t-butoxycarbonyl]-N-ε-acetyl-L-lysineamide]",Cell death,[1],unharmed
same,Cell death,[2],effectively caused cell death
same,Tolerability judged by weight loss,[3]; 150 mg/kg/dose daily intraperitoneal for 10 d,well-tolerated
same,Toxicity,"[3]; 400 mg/kg, during and after 14 injections, HCT116 xenograft mice",No toxicity was observed
same,Toxicity,"[3]; tumor incidence study groups, daily intraperitoneal treatment",no toxicity was observed
same,"Systemic toxicity, dose escalation","[3]; up to 400 mg/kg, 5 consecutive daily injections, female nude mice",No severe systemic toxicity was observed
same,"Intensity of Puro incorporation, tumors versus normal muscle and kidney",[4],substantially greater in tumors
same,Cell proliferation (cell number),[5],allowed them to proliferate to confluency
